Results published in ChEMBL document CHEMBL1148975, “Ancistrobenomine a, the first naphthylisoquinoline oxygenated at Me-3, and related 5,1'-coupled alkaloids, from the "new" plant species ancistrocladusbenomensis” (J Nat Prod, 2004).
≈ marks a conversion by molar mass, not a printed value.

Experiments:
[1] = system: Trypanosoma cruzi; assay: Antitrypanosomal activity against Trypanosoma cruzi; type: functional, organism-based
[2] = system: L6; assay: Cytotoxicity against rat L6 cells; type: cell-based
[3] = system: Leishmania donovani; assay: Antileishmanial activity against Leishmania donovani; type: functional, organism-based
[4] = system: Plasmodium falciparum; assay: Antiplasmodial activity against Plasmodium falciparum K1; type: functional, organism-based
[5] = system: Trypanosoma brucei rhodesiense; assay: Antitrypanosomal activity against Trypanosoma brucei rhodesiense; type: functional, organism-based

IC50 [1] | IC50 [3] | IC50 [4] | IC50 [5] | Compound | MIC [2]
23.4 µg/mL (≈ 57.7 µM) | > 30 µg/mL | 2.18 µg/mL (≈ 5.38 µM) | 14.7 µg/mL (≈ 36.3 µM) | COc1cccc2c(-c3c(O)cc(OC)c4c(C)nc(CO)cc34)c(C)cc(O)c12 [6-O-DEMETHYLANCISTROBENOMINE A] | 59.9 µg/mL (≈ 148 µM)
4.8 µg/mL (≈ 11.4 µM) | > 10 µg/mL | 0.76 µg/mL (≈ 1.81 µM) | 1.3 µg/mL (≈ 3.1 µM) | COc1cc(OC)c2c(C)nc(CO)cc2c1-c1c(C)cc(O)c2c(OC)cccc12 [ANCISTROBENOMINE A] | 12.3 µg/mL (≈ 29.3 µM)
36.4 µg/mL (≈ 89.3 µM) | 18.8 µg/mL (≈ 46.1 µM) | 0.51 µg/mL (≈ 1.25 µM) | 2.2 µg/mL (≈ 5.4 µM) | COc1cc(O)c(-c2c(C)cc(OC)c3c(O)cccc23)c2c1[C@@H](C)N(C)[C@@H](C)C2 | 15.5 µg/mL (≈ 38 µM)

Compound | IC50 [1] | IC50 [3] | IC50 [4] | IC50 [5] | MIC [2]
Nc1nc(N)nc(Nc2ccc([As]3SCC(CO)S3)cc2)n1 (stereo unspecified) [MELARSOPROL] |  |  |  | 0.00095 µg/mL | 
